Experimental data as given in patent publication US6380218B1, “Nicotinamide derivatives” (Pfizer Inc, priority 1997, dated 2002).

Structure (SMILES)	melting point [°C]
CC(C)(O)C1CCC(CNC(=O)c2cccnc2Oc2ccc(F)cc2)CC1 (centres unmarked) [Example 245, 2-(4-Fluoro-phenoxy)-N-[4-(1-hydroxy-1-methyl-ethyl)-cyclohexylmethyl]-nicotinamide]	78 to 80
O=C(NCc1ccccc1Cl)c1cccnc1OCc1cccnc1 [Example 246, N-(2-Chloro-benzyl)-2-(pyridin-3-ylmethoxy)-nicotinamide]	91 to 93
CN(C)c1ccc(CNC(=O)c2cccnc2Oc2ccc(F)cc2)cc1 [Example 247, N-[[4-(Dimethylamino)phenyl]methyl]-2-(4-fluorophenoxy)-3-pyridinecarboxamide]	99.5 to 101.5
COc1ccc(CCC(=O)c2cccnc2Oc2ccc(F)cc2)cc1 [Example 249, 1-[2-(4-Fluorophenoxy)-3-pyridinyl]-3-(4-methoxyphenyl)-1-propanone]	73 to 74
O=C(CCc1ccc(C(F)(F)F)cc1)c1cccnc1Oc1ccc(F)cc1 [Example 252, 1-[2-(4-Fluoro-phenoxy)-pyridin-3-yl]-3-(4-trifluoromethyl-phenyl)-propan-1-one]	94 to 95
O=C(CCc1ccc(OC(F)(F)F)cc1)c1cccnc1Oc1ccc(F)cc1 [Example 253, 1-[2-(4-Fluoro-phenoxy)-pyridin-3-yl]-3-(4-trifluoromethoxy-phenyl)-propan-1-one]	79 to 81
O=C(CCc1cc(F)cc(F)c1)c1cccnc1Oc1ccc(F)cc1 [Example 254, 3-(3,5-Difluoro-phenyl)-1-[2-(4-fluoro-phenoxy)-pyridin-3-yl]-propan-1-one]	69 to 70
O=C(CCc1c(F)cc(F)cc1F)c1cccnc1Oc1ccc(F)cc1 [Example 255, 1-[2-(4-Fluoro-phenoxy)-pyridin-3-yl]-3-(2,4,6-trifluoro-phenyl)-propan-1-one]	84 to 85
O=C(CCc1ccccc1)c1cccnc1Oc1ccc(F)cc1 [Example 256, 1-[2-(4-Fluorophenoxy)-3-pyridinyl]-3-phenyl-1-propanone]	82 to 83
O=C(CCc1ccccc1)c1cccnc1Oc1cccnc1 [Example 257, 3-Phenyl-1-[2-(pyridin-3-yloxy)-pyridin-3-yl]-propan-1-one]	45 to 46
O=C(CCc1ccc(F)cc1)c1cccnc1Oc1cccnc1 [Example 258, 3-(4-Fluoro-phenyl)-1-[2-(pyridin-3-yloxy)-pyridin-3-yl]-propan-1-one]	62 to 64
O=C(Cc1ccccc1)c1cccnc1Oc1ccc(F)cc1 [Example 264, 1-[2-(4-Fluoro-phenoxy)-pyridin-3-yl]-2-phenyl-ethanone]	81 to 82
O=C(COc1ccccc1)c1cccnc1Oc1ccc(F)cc1 [Example 265, 1-[2-(4-Fluoro-phenoxy)-pyridin-3-yl]-2-phenoxy-ethanone]	105.5 to 106.5
O=C(COc1ccccc1Cl)c1cccnc1Oc1ccc(F)cc1 [Example 266, 2-(2-Chloro-phenoxy)-1-[2-(4-fluoro-phenoxy)-pyridin-3-yl]-ethanone]	92 to 93
O=C(c1cc2ccccc2[nH]1)c1cccnc1Oc1ccc(F)cc1 [Example 269, [2-(4-Fluoro-phenoxy)-pyridin-3-yl]-(1H-indol-2-yl)-methanone]	169 to 170
CN(CC(=O)c1cccnc1Oc1ccc(F)cc1)c1ccccc1 [Example 270, 1-[2-(4-Fluoro-phenoxy)-pyridin-3-yl]-2-(methyl-phenyl-amino)-ethanone]	126 to 128
OC(CCc1c(F)cc(F)cc1F)c1cccnc1Oc1ccc(F)cc1 (centres unmarked) [Example 274, 1-[2-(4-Fluoro-phenoxy)-pyridin-3-yl]-3-(2,4,6-trifluoro-phenyl)-propan-1-ol]	90 to 91
COc1cccc(Oc2ncccc2C(=O)NCc2ccccc2Cl)c1 [Example 283, N-(2-Chloro-benzyl)-2-(3-methoxy-phenoxy)-nicotinamide]	71 to 74
CC(C)(O)c1ccc(CNC(=O)c2cccnc2Oc2cccc3c2CCC3=O)cc1 [Example 284, N-[4-(1-Hydroxy-1-methyl-ethyl)-benzyl]-2-(1-oxo-indan-4-yloxy)-nicotinamide]	145 to 147

Structure (SMILES)	melting point [°C]
CC(=O)c1ccc(CNC(=O)c2cccnc2Oc2ccc(F)cc2)cc1 [Example 285, N-[4-Acetyl-benzyl)-2-(4-fluoro-phenoxy)-nicotinamide]	106 to 108
O=C1CCC(CNC(=O)c2cccnc2Oc2ccc(F)cc2)CC1 [Example 286, 2-(4-Fluoro-phenoxy)-N-(4-oxo-cyclohexylmethyl)-nicotinamide]	157 to 159
O=C(NCC1CCC(O)CC1)c1cccnc1Oc1ccc(F)cc1 (centres unmarked) [Example 288, 2-(4-Fluoro-phenoxy)-N-(4-hydroxy-cyclohexylmethyl)-nicotinamide]	110 to 112
NC(=O)c1cccc(Oc2ncccc2C(=O)NCc2ccccc2Cl)c1 [Example 289, 2-(3-Carbamoyl-phenoxy)-N-(2-chloro-benzyl)-nicotinamide]	153 to 155
CC(C)(O)c1ccc(CNC(=O)c2cccnc2Oc2ccc3c(c2)OCO3)cc1 [Example 293, 2-(Benzo[1,3]dioxol-5-yloxy)-N-[4-(1-hydroxy-1-methyl-ethyl)-benzyl]-nicotinamide]	118 to 120
CCOC(=O)C1CCC(CNC(=O)c2cccnc2Oc2cccc(C(N)=O)c2)CC1 (centres unmarked) [Example 295, 4-({[2-(3-Carbamoyl-phenoxy)-pyridine-3-carbonyl]-amino}-methyl)-cyclohexanecarboxylic acid ethyl ester]	160 to 162
CC(C)(O)c1ccc(CNC(=O)c2cccnc2Oc2ccc3ncsc3c2)cc1 [Example 301, 2-(Benzothiazol-6-yloxy)-N-(4-(1-hydroxy-1-methyl-ethyl)-benzyl)-nicotinamide]	195 to 197
CC(C)(O)c1ccc(CNC(=O)c2cccnc2Oc2ccc3ncoc3c2)cc1 [Example 302, 2-(Benzooxazol-6-yloxy)-N-(4-(1-hydroxy-1-methyl-ethyl)-benzyl)-nicotinamide]	92 to 94
CC(=O)c1cc(Cl)cc(Oc2ncccc2C(=O)NCc2ccc(C(C)(C)O)cc2)c1 [Example 305, 2-(3-Acetyl-5-chloro-phenoxy)-N-(4-(1-Hydroxy-1-methyl-ethyl)-benzyl)-nicotinamide]	110 to 112
CC(=O)c1cccc(Oc2ncccc2C(=O)NCc2ccc([C@H](C)O)cc2)c1 [Example 306, (S)-(−)-2-(3-Acetyl-phenoxy)-N-(4-(1-hydroxy-ethyl)-benzyl)-nicotinamide]	102 to 104
CC(=O)c1cccc(Oc2ncccc2C(=O)NCc2ccc([C@@H](C)O)cc2)c1 [Example 307, (R)-(+)-2-(3-Acetyl-phenoxy)-N-(4-(1-hydroxy-ethyl)-benzyl)-nicotinamide]	104 to 106
CC(=O)c1cc(Cl)cc(Oc2ncccc2C(=O)NC[C@H]2CC[C@H](C(C)(C)O)CC2)c1 [Example 308, 2-(3-Acetyl-5-chloro-phenoxy)-N-(trans-4-(1-hydroxy-1-methyl-ethyl)-cyclohexylmethyl)-nicotinamide]	133 to 135
CC(=O)c1cc(Oc2ncccc2C(=O)NC[C@H]2CC[C@H](C(C)(C)O)CC2)ccc1Cl [Example 309, 2-(3-Acetyl-4-chloro-phenoxy)-N-(trans-4-(1-hydroxy-1-methyl-ethyl)-cyclohexylmethyl)-nicotinamide]	106 to 108
Cc1noc2ccc(Oc3ncccc3C(=O)NCC3CCC(C(C)(C)O)CC3)cc12 (centres unmarked) [Example 315, N-(4-(1-Hydroxy-1-methyl-ethyl)-cyclohexylmethyl)-2-(3-methyl-benzo(d)-isoxazol-5-yloxy)-nicotinamide]	135 to 137
Cc1noc2ccc(Oc3ncccc3C(=O)NCc3ccc(C(C)(C)O)cc3)cc12 [Example 316, N-(4-(1-Hydroxy-1-methyl-ethyl)-benzyl)-2-(3-methyl-benzo(d)-isoxazol-5-yloxy)-nicotinamide]	128 to 130
Cc1noc2c(Oc3ncccc3C(=O)NCC3CCC(C(C)(C)O)CC3)cccc12 (centres unmarked) [Example 317, N-(4-(1-Hydroxy-1-methyl-ethyl)-cyclohexylmethyl)-2-(3-methyl-benzo(d)-isoxazol-7-yloxy)-nicotinamide]	170 to 172
CC(C)(O)C1CCC(CNC(=O)c2cccnc2Oc2ccc(F)c(C#N)c2)CC1 (centres unmarked) [Example 322, 2-(3-Cyano-4-fluoro-phenoxy)-N-[4-(1-hydroxy-1-methyl-ethyl)-cyclohexylmethyl]-nicotinamide]	85 to 88
CC(C)(O)c1ccc(CNC(=O)c2cccnc2Oc2ccc3c(c2)OCO3)c(F)c1 [Example 327, 2-(Benzo[1,3]dioxol-5-yloxy)-N-[2-fluoro-4-(1-hydroxy-1-methyl-ethyl)-benzyl]-nicotinamide]	94 to 95
CC(C)(O)c1ccc(CNC(=O)c2cccnc2Oc2ccc(F)cc2)c(F)c1 [Example 328, N-[2-Fluoro-4-(1-hydroxy-1-methyl-ethyl)-benzyl]-2-(4-fluoro-phenoxy)-nicotinamide]	93 to 94
